From patent US20150307938A1, “METHOD TO IDENTIFY A NOVEL CLASS OF IMMUNOLOGIC ADJUVANTS” (Lancell, L.L.C., priority 2011, published 2015)

System: skin
Experiment: Affymetrix microarray of skin, DBP-4 hr and analogs vs. untreated; gene selection by log-2 fold change, Wilcoxon, Kendall tau (Tables 8, 9)
Assay type: in vivo, mouse
[1] = Kendall tau, expression vs. output

CCCCOC(=O)c1ccccc1C(=O)OCCCC [DBP, dibutylphthalate]
Oxr1 NM_001130166_at Kendall [1]: Yes
Pgam2 NM_018870_at Kendall [1]: No
Pigyl NM_001082532_at Kendall [1]: Yes
Pparg NM_001127330_at Kendall [1]: Yes
Ppih NM_001110129_at Kendall [1]: Yes
Prg4 NM_021400_at Kendall [1]: No
Retnla NM_020509_at Kendall [1]: No
Rffl NM_001007465_at Kendall [1]: Yes
Rn18s NR_003278_at Kendall [1]: No
Rpl3l NM_025425_at Kendall [1]: No
Slc39a14 NM_001135151_at Kendall [1]: Yes
Sln NM_025540_at Kendall [1]: No
Smpx NM_025357_at Kendall [1]: No
Tnfrsf9 NM_001077508_at Kendall [1]: Yes
Tnfrsf9 NM_001077509_at Kendall [1]: Yes
Tnni1 NM_021467_at Kendall [1]: No
Trdn NM_029726_at Kendall [1]: No
Trf NM_133977_at Kendall [1]: No
Trp63 NM_001127259_at Kendall [1]: Yes
Trp63 NM_001127260_at Kendall [1]: Yes
Trp63 NM_001127262_at Kendall [1]: Yes
Trp63 NM_001127264_at Kendall [1]: Yes
Ttn NM_028004_at Kendall [1]: No
Wbp1 NM_001083922_at Kendall [1]: Yes
Wbp1 NM_001083923_at Kendall [1]: Yes
Wfdc2 NM_026323_at Kendall [1]: No
Zfp68 NM_001044747_at Kendall [1]: Yes
Zfp187 NM_001013786_at Kendall [1]: Yes
Zfp518b NM_001081144_at Kendall [1]: Yes
Zfp943 NM_001025373_at Kendall [1]: Yes
Wilcoxon (Map3k8 NM_007746_at, DBP-4 hr vs. untreated): No
Kendall (Map3k8 NM_007746_at, Kendall tau coefficient): No
DBP Expression: Adam8 (NM_007403_at, DBP-4 hr): 8.84
DBP Expression: Birc3 (NM_007464_at, DBP-4 hr): 10.36
DBP Expression: Btg2 (NM_007570_at, DBP-4 hr): 10.63
DBP Expression: Cebpd (NM_007679_at, DBP-4 hr): 10.17
DBP Expression: Socs2 (NM_007706_at, DBP-4 hr): 8.92
DBP Expression: Socs3 (NM_007707_at, DBP-4 hr): 9.48
DBP Expression: Map3k8 (NM_007746_at, DBP-4 hr): 8.72
DBP Expression: Csf2rb (NM_007780_at, DBP-4 hr): 7.73
DBP Expression: Csrp1 (NM_007791_at, DBP-4 hr): 9.89
DBP Expression: Egr1 (NM_007913_at, DBP-4 hr): 12.15
DBP Expression: F2rl1 (NM_007974_at, DBP-4 hr): 9.38
DBP Expression: Fgfbp1 (NM_008009_at, DBP-4 hr): 11.47
DBP Expression: Gjb2 (NM_008125_at, DBP-4 hr): 8.85
DBP Expression: Gpr65 (NM_008152_at, DBP-4 hr): 5.48
DBP Expression: Cxcl1 (NM_008176_at, DBP-4 hr): 10.24
DBP Expression: Gyk (NM_008194_at, DBP-4 hr): 9.63
DBP Expression: Hdc (NM_008230_at, DBP-4 hr): 8.51
DBP Expression: Il10ra (NM_008348_at, DBP-4 hr): 6.97
DBP Expression: Il1b (NM_008361_at, DBP-4 hr): 7.67
DBP Expression: Il7r (NM_008372_at, DBP-4 hr): 7.70
DBP Expression: Junb (NM_008416_at, DBP-4 hr): 9.71
DBP Expression: Krt6a (NM_008476_at, DBP-4 hr): 10.76
DBP Expression: Mt2 (NM_008630_at, DBP-4 hr): 13.23
DBP Expression: Serpine1 (NM_008871_at, DBP-4 hr): 8.32
DBP Expression: Cxcl2 (NM_009140_at, DBP-4 hr): 8.67
DBP Expression: Sprr1a (NM_009264_at, DBP-4 hr): 10.84
DBP Expression: Stc1 (NM_009285_at, DBP-4 hr): 7.56
DBP Expression: Tnfaip2 (NM_009396_at, DBP-4 hr): 8.85
DBP Expression: Tnfaip3 (NM_009397_at, DBP-4 hr): 7.22
DBP Expression: Tnfaip6 (NM_009398_at, DBP-4 hr): 8.79
DBP Expression: Traf1 (NM_009421_at, DBP-4 hr): 6.04
DBP Expression: Ccrn4l (NM_009834_at, DBP-4 hr): 10.05
DBP Expression: Cd44 (NM_009851_at, DBP-4 hr): 9.82
DBP Expression: Ch25h (NM_009890_at, DBP-4 hr): 7.68
DBP Expression: Cish (NM_009895_at, DBP-4 hr): 9.37
DBP Expression: Eif1a (NM_010120_at, DBP-4 hr): 9.39
DBP Expression: Epha2 (NM_010139_at, DBP-4 hr): 8.60
DBP Expression: Fkbp5 (NM_010220_at, DBP-4 hr): 8.58
DBP Expression: Fosl1 (NM_010235_at, DBP-4 hr): 6.85
DBP Expression: Hbegf (NM_010415_at, DBP-4 hr): 8.85
DBP Expression: Nr4a1 (NM_010444_at, DBP-4 hr): 10.34
DBP Expression: Icam1 (NM_010493_at, DBP-4 hr): 10.54
DBP Expression: Ier2 (NM_010499_at, DBP-4 hr): 10.73
DBP Expression: Cyr61 (NM_010516_at, DBP-4 hr): 9.37
DBP Expression: Jun (NM_010591_at, DBP-4 hr): 9.74
DBP Expression: Osmr (NM_011019_at, DBP-4 hr): 7.49
DBP Expression: Plaur (NM_011113_at, DBP-4 hr): 7.68
DBP Expression: Rab20 (NM_011227_at, DBP-4 hr): 6.73
DBP Expression: Ccl12 (NM_011331_at, DBP-4 hr): 8.47
DBP Expression: Ccl2 (NM_011333_at, DBP-4 hr): 9.45
DBP Expression: Slc7a5 (NM_011404_at, DBP-4 hr): 10.00
DBP Expression: Bhlhe40 (NM_011498_at, DBP-4 hr): 10.32
DBP Expression: Cirh1a (NM_011574_at, DBP-4 hr): 9.51
DBP Expression: Zfp36 (NM_011756_at, DBP-4 hr): 10.39
DBP Expression: Crem (NM_013498_at, DBP-4 hr): 6.91
DBP Expression: Gzmb (NM_013542_at, DBP-4 hr): 5.74
DBP Expression: Mt1 (NM_013602_at, DBP-4 hr): 12.73
